Data on 15 compounds can be found in EP3495350B1, “COMPOUND INHIBITING FORMATION OF C-MYC/MAX/DNA COMPLEX” (National Cancer Center, priority 2016, dated 2018).

One data set deals with recombinant c-Myc/Max. The data set can be described thus: Protein assay: electrophoretic mobility shift assay (EMSA) of DNA binding of c-Myc/Max. Format: biochemical. The protocol:
Recombinant proteins were prepared as described in the following references: K. C. Jung et al., Fatty Acids, Inhibitors for the DNA Binding of c-Myc/Max Dimer, Suppress Proliferation and Induce Apoptosis of Differentiated HL-60 Human Leukemia Cell, Leukemia, 2006, 20(1), 122-7 or Kyung-Chae Jeong et al., Small-Molecule Inhibitors of c-Myc Transcriptional Factor Suppress Proliferation and Induce Apoptosis of Promyelocytic Leukemia Cell via Cell Cycle Arrest, Mol. BioSyst., 2010, 6, 1503-1509.
The inhibitory activity of each candidate compound on DNA binding of recombinant c-Myc/Max was measured using an electrophoretic mobility shift assay (EMSA). The ratio of protein-DNA complexes in each sample was evaluated by measuring band intensity. The oligonucleotides (E-box, 5'-biotin-[…]-3'-biotin) corresponding to the consensus binding site of Myc/Max were dimerized through an annealing process. The protein mixture was incubated at room temperature for 5 minutes, and a DMSO solution containing each candidate compound was added thereto. The mixture was further incubated for 5 minutes, and the biotinylated DNA was added. To achieve a state of equilibrium, the final mixture was incubated at room temperature for 10 minutes. […] Each band was visualized using HRP-conjugated streptavidin and an ECL solution, and band intensity was measured using image analysis software.

For another data set, the system named is KU19-19. The data set can be described thus: Cell based assay, cell viability (CellTiter-Glo), KU19-19. The note with it: Homo sapiens, KU-19-19; 72 hours, 0 to 2 µM; read-out: cell based assay cell line 2 KU19-19 IC50. The protocol:
(§1) Commercially available bladder cancer cell lines were treated with trypsin-EDTA and seeded in each well of a 96 well plate, followed by incubation for 24 hours. After incubation, candidate compounds were added to each well at a final concentration of 0 to 2 µM. The compound-treated cells were further incubated for 72 hours. Cell viability was measured using an ATP detection method (CellTiter-Glo Luminescent Cell Viability Assay, Promega).
(§2) The selectivity of the compounds of the present disclosure to cancer cells was evaluated in the same manner as described in "2. Cell based assay".

The test system of another data set is 253J. The data set can be described thus: Cell based assay, cell viability (CellTiter-Glo), 253J. The note with it: Homo sapiens; 72 hours, 0 to 2 µM; read-out: cell based assay cell line 3 253J IC50. The protocol:
as §1, §2

Another data set concerns UM-UC-3. The data set can be described thus: Cell based assay, cell viability (CellTiter-Glo), UM-UC-3. The note with it: Homo sapiens, UMUC3; 72 hours, 0 to 2 µM; read-out: cell based assay cell line 4 UM-UC-3 IC50. The procedure: as §1, §2
In another data set the test system is MBT-2. The data set can be described thus: Cell based assay, cell viability (CellTiter-Glo), MBT-2. The note with it: 72 hours, 0 to 2 µM; read-out: cell based assay cell line 1 MBT-2 IC50. The procedure:
as §1, §2

Data set [1] is described as follows: Cell based assay, cell viability (CellTiter-Glo), RT4 (selectivity). The note with it: human, rt4 cells; selectivity evaluation, Table 6; benign; read-out: Cytotoxicity (µM) RT4. The procedure:
Commercially available bladder cancer cell lines were treated with trypsin-EDTA and seeded in each well of a 96 well plate, followed by incubation for 24 hours. […] The compound-treated cells were further incubated for 72 hours. Cell viability was measured using an ATP detection method (CellTiter-Glo Luminescent Cell Viability Assay, Promega).
as §2

The test system of the next data set is zebrafish. The data set can be described thus: Cardiotoxicity experiment using zebrafish (heart rate, lethality). Format: in vivo. The note with it: n=10; for Changes in heart rate (%): mean.
The nature of data set [2]: Single toxicity test (IV and IP single dose). Format: in vivo, Mouse. The note with it: 40 mg/kg.

pIC50: −log10 of the molar value. Some results are limits rather than exact numbers.

Turning to `CC(=O)c1c(S(=O)(=O)Cc2ccccc2)nc2c(Br)ccc(Cl)c2c1O` [Compound 54, 1-(2-(benzylsulfonyl)-8-bromo-5-chloro-4-hydroxyquinolin-3-yl)ethan-1-one], the pIC50 at recombinant c-Myc/Max was over 6.00; in the data set with KU19-19, under 5.70; in the data set with 253J, under 5.70; in the data set with UM-UC-3 it was under 5.70; with MBT-2, under 5.70.
`CC(=O)c1c([S+]([O-])Cc2ccc([N+](=O)[O-])cc2)[nH]c2c(Br)ccc(Cl)c2c1=O` (centres unmarked) [Compound 33, 3-acetyl-8-bromo-5-chloro-2-((4-nitrobenzyl)sulfinyl)quinolin-4(1H)-one]: the pIC50 in the data set with KU19-19 was 5.85; with 253J it was 5.86; with UM-UC-3, 5.95; in the data set with MBT-2 it was 6.05. The CC50 at 72 h in data set [1] is over 10 µM. Besides, the “Changes in heart rate (%)” value in the data set with zebrafish (5 µM) turned out to be 97.3%. In addition, the Lethality in the data set on zebrafish (5 µM) was 0/10. In the data set with zebrafish (5 µM), the “Note (heart rate inhibition)” value was “No significant heart rate inhibition”.
In the case of `COc1ccc(CCN2CCC(Nc3nc4ccccc4n3Cc3ccc(F)cc3)CC2)cc1` [Astemizole, reference compound], in the data set on zebrafish (10 µM), the “Changes in heart rate (%)” value is given as 46.2% and the Lethality is on record as 0/10.
Take `CC(=O)c1c([S+]([O-])Cc2ccc(C(C)(C)C)cc2)[nH]c2c(Br)ccc(Cl)c2c1=O` (centres unmarked) [Compound 60, 3-acetyl-8-bromo-2-((4-(tert-butyl)benzyl)sulfinyl)-5-chloroquinolin-4(1H)-one]: the pIC50 in the data set on KU19-19 is 5.81; in the data set with 253J it was 5.77; with UM-UC-3 it was under 5.70; in the data set on MBT-2, under 5.70.
As for `CC(=O)c1c([S+]([O-])Cc2ccc(SC(F)(F)F)cc2)[nH]c2c(Cl)ccc(Cl)c2c1=O` (centres unmarked) [Compound 79, 3-acetyl-5,8-dichloro-2-((4-((trifluoromethyl)thio)benzyl)sulfinyl)quinolin-4(1H)-one], the pIC50 in the data set with KU19-19, in the data set on 253J, in the data set on UM-UC-3 and in the data set with MBT-2 was under 5.70 in each case.
Consider `CC(=O)c1c([S+]([O-])Cc2c(F)cccc2Cl)[nH]c2c(Br)ccc(Cl)c2c1=O` (centres unmarked) [Compound 74, 3-acetyl-8-bromo-5-chloro-2-((2-chloro-6-fluorobenzyl)sulfinyl)quinolin-4(1H)-one], for which the pIC50 with KU19-19 is 5.79; in the data set on 253J it was 6.09; in the data set with UM-UC-3, 5.81; in the data set with MBT-2, 5.94.
Regarding `CC(=O)c1c([S+]([O-])Cc2ccc(SC(F)(F)F)cc2)[nH]c2c(Br)ccc(Cl)c2c1=O` (centres unmarked) [Compound 56, 3-acetyl-8-bromo-5-chloro-2-((4-((trifluoromethyl)thio)benzyl)sulfinyl)quinolin-4(1H)-one], the pIC50 is 6.03 in the data set on KU19-19, 5.95 with 253J, 5.90 in the data set on UM-UC-3 and 5.93 with MBT-2.
The matching figures for `COC(=O)c1ccc(C[S+]([O-])c2[nH]c3c(Cl)ccc(Cl)c3c(=O)c2C(C)=O)cc1` (centres unmarked) [Compound 91, methyl 4-(((3-acetyl-5,8-dichloro-4-oxo-1,4-dihydroquinolin-2-yl)sulfinyl)methyl)benzoate]: under 5.70, under 5.70, 5.81 and 5.86.
Consider `CC(=O)c1c([S+]([O-])c2ccc(Br)cc2)[nH]c2c(Br)ccc(Cl)c2c1=O` (centres unmarked) [Compound 17, 3-acetyl-8-bromo-2-((4-bromophenyl)sulfinyl)-5-chloroquinolin-4(1H)-one], for which the pIC50 in the data set with KU19-19, with 253J, in the data set on UM-UC-3 and with MBT-2 was under 5.70 in each case.
Regarding `COc1cccc2[nH]c([S+]([O-])Cc3ccc(S(F)(F)(F)(F)F)cc3)c(C(C)=O)c(=O)c12` (centres unmarked) [Compound 93, 3-acetyl-5-methoxy-2-((4-(pentafluoro-λ6-sulfanyl)benzyl)sulfinyl)quinolin-4(1H)-one], the pIC50 with KU19-19, in the data set on 253J, in the data set on UM-UC-3 and in the data set with MBT-2 was under 5.70 in each case.
On to `O=C(c1ccccc1)c1c([S+]([O-])Cc2ccc(S(F)(F)(F)(F)F)cc2)[nH]c2c(F)ccc(F)c2c1=O` (centres unmarked) [Compound 87, 3-benzoyl-5,8-difluoro-2-((4-(pentafluoro-λ6-sulfanyl)benzyl)sulfinyl)quinolin-4(1H)-one], for which the pIC50 in the data set with KU19-19, in the data set on 253J, in the data set on UM-UC-3 and with MBT-2 was under 5.70 each time.
With `CC(=O)c1c([S+]([O-])Cc2ccc(C#N)cc2)[nH]c2c(Br)ccc(Cl)c2c1=O` (centres unmarked) [Compound 73, 4-(((3-acetyl-8-bromo-5-chloro-4-oxo-1,4-dihydroquinolin-2-yl)sulfinyl)methyl)benzonitrile], the pIC50 in the data set with KU19-19 was 5.70; with 253J, 5.87; in the data set on UM-UC-3, 5.79; in the data set on MBT-2 it was 6.00.
On to `CC(=O)c1c([S+]([O-])Cc2ccc(Cl)cc2)[nH]c2c(Br)ccc(Cl)c2c1=O` (centres unmarked) [Compound 11, 3-acetyl-8-bromo-5-chloro-2-((4-chlorobenzyl)sulfinyl)quinolin-4(1H)-one], for which the pIC50 with KU19-19 was under 5.70; in the data set on 253J, 5.85; with UM-UC-3, 5.83; in the data set on MBT-2 it was under 5.70.
In the case of `CC(=O)c1c([S+]([O-])Cc2ccccc2)nc2c(Br)ccc(Cl)c2c1O` (centres unmarked) [Compound 4, 3-acetyl-2-(benzylsulfinyl)-8-bromo-5-chloroquinolin-4(1H)-one], the pIC50 on recombinant c-Myc/Max is over 6.00; in the data set with KU19-19 it was 5.98; with 253J, 6.00; with UM-UC-3, 5.88; with MBT-2 it was 6.02. Further, the deaths result in data set [2] (IV and IP single-dose administration of 40 mpk) is given as “no deaths”. For the same compound, in data set [2] (mouse, in vivo), the “General symptoms (feed intake, drinking water intake)” value is on record as “no abnormal symptoms”. Moreover, in data set [2] (mouse, in vivo), the Weight changes entry is recorded as “no significant weight changes”. In addition, the Percentage is on record as 0 (0/2) in data set [2] (mouse, in vivo, ip) and 0 (0/2) in data set [2] (mouse, in vivo, iv). The mortality in data set [2] (mouse, in vivo, ip) stood at 0%; in data set [2] (mouse, in vivo, iv), 0%. Also, the CC50 at 72 h in data set [1] was over 10 µM. Besides, the “Changes in heart rate (%)” value in the data set with zebrafish (5 µM) came out at 88.5%. The Lethality in the data set on zebrafish (5 µM) is recorded as 1/10.
For the compound `CC(=O)c1c([S+]([O-])Cc2ccc(C(F)(F)F)cc2)[nH]c2c(Br)ccc(Cl)c2c1=O` (centres unmarked) [Compound 70, 3-acetyl-8-bromo-5-chloro-2-((4-(trifluoromethyl)benzyl)sulfinyl)quinolin-4(1H)-one], the pIC50 is 5.76 in the data set with KU19-19, 5.98 in the data set on 253J, 5.90 in the data set with UM-UC-3 and 5.88 with MBT-2.
